The values that follow come from patent US20250092044A1, “Kinase Inhibitors” (Incyte Corporation, priority 2023, published 2025).

In experiment [1] the target is pseudo-kinase domain (JH2) of human V617F mutant JAK2 (Homo sapiens (Human), UniProt O60674, F794H/V617F/W659A/W777A). As to the kind of experiment: JAK2 LanthaScreen JH2-V617F Binding Assay. The conditions noted are these: read-out: JH2 V617F Bind IC50. An outline of the steps: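 Biotinylated His-Avi JAK2 JH2 (aa 536-812, V617F plus W659A/W777A/F794H; 0.26 nM) incubated 1 h at 25 °C with compound, 50 nM fluorescent JH2 tracer and 0.25 nM streptavidin-Tb in Tris pH 7.5 buffer. TR-FRET tracer displacement read; nonspecific binding with 2 mM ATP; IC50 from four-parameter fit.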
pseudo-kinase domain (JH2) of human V617F mutant JAK2, sequence (O60674 536-812 V617F/W659A/W777A/F794H): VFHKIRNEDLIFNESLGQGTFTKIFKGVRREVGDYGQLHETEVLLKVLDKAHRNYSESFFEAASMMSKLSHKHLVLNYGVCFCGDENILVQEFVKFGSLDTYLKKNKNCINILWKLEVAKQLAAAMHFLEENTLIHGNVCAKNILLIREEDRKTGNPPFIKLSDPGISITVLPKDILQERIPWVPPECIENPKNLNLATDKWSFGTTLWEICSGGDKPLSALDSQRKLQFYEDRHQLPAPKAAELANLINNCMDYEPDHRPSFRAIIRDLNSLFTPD
A general note: Time-resolved FRET reads energy transfer from a long-lived donor to a nearby acceptor.

The test system of experiment [2] is pSTAT5 in SET-2 cells in whole blood. As to the kind of experiment: pSTAT5 SET-2 Whole Blood MSD Assay. The class given is cell-based. As to conditions: Homo sapiens, 2 hour incubation, read-out: SET2 WB IC50. How it is done: SET-2 cells shipped from ABS, RPMI1640 medium, Fetal Bovine Serum from Gibco, Phospho-STAT5a,b Whole Cell Lysate Kit from Mesoscale, Retronectin (Recombinant Human Fibronectin Fragment) from TaKaRa, 96 well cell culture plate flat bottom from Corning, lysis buffer from Cell Signaling Technology, and sterile PBS from Gibco. Whole Blood from by BioIVT.
SET-2 cells were cultured in RPMI media with 20% FBS at 37° C. humidified incubator supplied with 5% CO2. On the day of the assay, 40 uL per well of diluted retronectin working solution was added to sterile 96-well clear flat bottom tissue culture plates (1:200 dilution of retronectin in sterile PBS) and incubated at 37 C for 1 hour. After 1 hour, the retronectin working solution was aspirated and SET-2 cells were seeded at 100,000/well in RPMI+20% FBS. Cells were incubated overnight at 37° C. and 5% CO2. The next day, the medium was removed and 40 μL of diluted compounds in serum-free RPMI and whole blood was added to the cells for a 2 hour incubation at 37° C. and 5% CO2. The compound starting concentration is 20 μM and 2.5 fold serial diluted down to 0.21 nM. The whole blood and compound mixture was then aspirated off using the BlueCat plate washer and washed 1× with PBS. Cells were lysed by adding 40 μL of 3× complete lysis buffer and shaken at room temperature for 45-60 minutes (complete lysis buffer consists of Cell Signaling Technology lysis buffer diluted to 3× and supplemented with Mesoscale's protease inhibitor, phosphatase I inhibitor, and phosphatase II inhibitor). The pSTAT5 MSD plates were blocked by adding 150 μL of Blocker A solution per well to the MSD plates and incubated at room temperature with shaking at 400 rpm for one hour or longer. After blocking, plates were washed 3× with 300 μL/well of 1× Tris Wash Buffer. After lysis, added 25 μL per well of lysed sample was added to MSD plate and incubated with shaking at 4° C. wrapped in foil overnight. The next day, plates were washed again and 25 μL/well of diluted 1× Detection Antibody Solution, wrapped in foil, and incubated at room temperature with shaking at 400 rpm for 1 hour. Plates were then washed again and lastly, 150 μL/well of 1× Read Buffer T was added to all wells. Plates were analyzed on MSD Discovery within 5 minutes. […] Data analysis was performed in GraphPad Prism using a 4-parameter fit and data was reported as Average±SD.

The subject of experiment [3] is STAT5 (Tyr694) phosphorylation in SET-2 cells. The experiment in a line: STAT5 (Tyr694) Phosphorylation Cell Based Assay. As to conditions: Homo sapiens, 2 hours, read-out: SET2 IC50. The method in brief: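 SET-2 cells in RPMI with 10% FBS were exposed to compound for 2 h at 37 °C (0.5% DMSO final). After lysis, phospho-STAT5 (Tyr694) was read by HTRF (665/620 ratio) after 24 h antibody incubation at room temperature. IC50 was fitted from percent control activity versus log concentration.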

Regarding `COC(=O)N[C@@H]1CC[C@@H](n2c(=O)n(C)c3cnc4[nH]c(-c5ccc(C(=O)N6CCOCC6)c(F)c5)c(-c5ccc6c(cnn6C(C)C)c5)c4c32)C1` [Example 16, Methyl ((1R,3R)-3-(7-(3-fluoro-4-(morpholine-4-carbonyl)phenyl)-8-(1-isopropyl-1H-indazol-5-yl)-3-methyl-2-oxo-3,6-dihydroimidazo[4,5-d]pyrrolo[2,3-b]pyridin-1(2H)-yl)cyclopentyl)carbamate], the IC50 (commonly the concentration that gives 50% inhibition) in experiment [1] is at most 10 nM; in experiment [2] it was 2500 to 5000 nM; in experiment [3], at most 300 nM.

In the case of `COC(=O)N[C@@H]1CC[C@@H](n2c(=O)n(C)c3cnc4[nH]c(-c5ccc(C(=O)NC6(C(F)(F)F)CC6)c(F)c5)c(-c5ccc6c(cnn6C(C)C)c5)c4c32)C1` [Example 13, Methyl ((1R,3R)-3-(7-(3-fluoro-4-((1-(trifluoromethyl)cyclopropyl)carbamoyl)phenyl)-8-(1-isopropyl-1H-indazol-5-yl)-3-methyl-2-oxo-3,6-dihydroimidazo[4,5-d]pyrrolo[2,3-b]pyridin-1(2H)-yl)cyclopentyl)carbamate], the IC50 in experiment [1] is at most 10 nM; in experiment [2] it was 5000 to 7500 nM; in experiment [3], 300 to 800 nM.

For `[2H]C([2H])([2H])n1c(=O)n([C@@H]2CC[C@@H](NC(=O)OC)C2)c2c3c(-c4ccc5c(c4)COC5(C)C)c(-c4ccc(C(=O)N(C)C)cc4)[nH]c3ncc21` [Example 30, methyl ((1R,3R)-3-(8-(1,1-dimethyl-1,3-dihydroisobenzofuran-5-yl)-7-(4-(dimethylcarbamoyl)phenyl)-3-(methyl-d3)-2-oxo-3,6-dihydroimidazo[4,5-d]pyrrolo[2,3-b]pyridin-1(2H)-yl)cyclopentyl)carbamate], the IC50 is at most 10 nM in experiment [1], at most 2500 nM in experiment [2] and at most 300 nM in experiment [3].

For `COCCN(C)C(=O)c1ccc(-c2[nH]c3ncc4c(c3c2-c2ccc3c(cnn3C(C)C)c2)n([C@@H]2CC[C@@H](NC(=O)OC)C2)c(=O)n4C)cc1F` [Example 15, Methyl ((1R,3R)-3-(7-(3-fluoro-4-((2-methoxyethyl)(methyl)carbamoyl)phenyl)-8-(1-isopropyl-1H-indazol-5-yl)-3-methyl-2-oxo-3,6-dihydroimidazo[4,5-d]pyrrolo[2,3-b]pyridin-1(2H)-yl)cyclopentyl)carbamate], the IC50 in experiment [1] was at most 10 nM; in experiment [2] it was 5000 to 7500 nM; in experiment [3], at most 300 nM.

Regarding `[2H]C([2H])([2H])N(Cc1ccc(-c2[nH]c3ncc4c(c3c2-c2ccc3c(c2)COC3(C)C)n([C@@H]2CC[C@@H](NC(=O)OC)C2)c(=O)n4C([2H])([2H])[2H])cc1)C([2H])([2H])[2H]` [Example 29, Methyl ((1R,3R)-3-(7-(4-((bis(methyl-d3)amino)methyl)phenyl)-8-(1,1-dimethyl-1,3-dihydroisobenzofuran-5-yl)-3-(methyl-d3)-2-oxo-3,6-dihydroimidazo[4,5-d]pyrrolo[2,3-b]pyridin-1(2H)-yl)cyclopentyl)carbamate], the IC50 in experiment [1] was at most 10 nM; in experiment [2], at most 2500 nM; in experiment [3], at most 300 nM.

On to `[2H]C([2H])([2H])N(Cc1ccc(-c2[nH]c3ncc4c(c3c2-c2ccc(OCCOC)cc2)n([C@@H]2CC[C@@H](NC(=O)OC)C2)c(=O)n4C([2H])([2H])[2H])cc1)C([2H])([2H])[2H]` [Example 27, Methyl ((1R,3R)-3-(7-(4-((bis(methyl-d3)amino)methyl)phenyl)-8-(4-(2-methoxyethoxy)phenyl)-3-(methyl-d3)-2-oxo-3,6-dihydroimidazo[4,5-d]pyrrolo[2,3-b]pyridin-1(2H)-yl)cyclopentyl)carbamate], for which the figures for the IC50 in experiment [1], in experiment [2] and in experiment [3] were at most 10 nM, at most 2500 nM and at most 300 nM, respectively.

In the case of `COC(=O)N[C@@H]1CC[C@@H](n2c(=O)n(C)c3cnc4[nH]c(-c5ccc(CN(C)C)cc5)c(-c5ccc(F)cc5)c4c32)C1` [Example 28, Methyl ((1R,3R)-3-(7-(4-((dimethylamino)methyl)phenyl)-8-(4-fluorophenyl)-3-methyl-2-oxo-3,6-dihydroimidazo[4,5-d]pyrrolo[2,3-b]pyridin-1(2H)-yl)cyclopentyl)carbamate], the IC50 in experiment [1] is at most 10 nM; in experiment [2] it was at most 2500 nM; in experiment [3], 300 to 800 nM.

For the compound `[2H]C([2H])([2H])N(Cc1ccc(-c2[nH]c3ncc4c(c3c2-c2ccc3c(c2)CC(C)(C)O3)n([C@@H]2CC[C@@H](NC(=O)OC)C2)c(=O)n4C([2H])([2H])[2H])cc1)C([2H])([2H])[2H]` [Example 25, Methyl ((1R,3R)-3-(7-(4-((bis(methyl-d3)amino)methyl)phenyl)-8-(2,2-dimethyl-2,3-dihydrobenzofuran-5-yl)-3-(methyl-d3)-2-oxo-3,6-dihydroimidazo[4,5-d]pyrrolo[2,3-b]pyridin-1(2H)-yl)cyclopentyl)carbamate], the half-inhibitory concentration (IC50) in experiment [1] is at most 10 nM; in experiment [2], at most 2500 nM; in experiment [3], at most 300 nM.

`COC(=O)N[C@@H]1CC[C@@H](n2c(=O)n(C)c3cnc4[nH]c(-c5ccc(C(=O)NC6CC6)c(F)c5)c(-c5ccc6c(cnn6C(C)C)c5)c4c32)C1` [Example 8, Methyl ((1R,3R)-3-(7-(4-(cyclopropylcarbamoyl)-3-fluorophenyl)-8-(1-isopropyl-1H-indazol-5-yl)-3-methyl-2-oxo-3,6-dihydroimidazo[4,5-d]pyrrolo[2,3-b]pyridin-1(2H)-yl)cyclopentyl)carbamate]: the IC50 is at most 10 nM in experiment [1], 5000 to 7500 nM in experiment [2] and 300 to 800 nM in experiment [3].

`CNC(=O)c1ccc(-c2[nH]c3ncc4c(c3c2-c2ccc3c(cnn3C(C)C)c2)n([C@@H]2CC[C@@H](NC(=O)OC)C2)c(=O)n4C)cc1` [Example 21, Methyl ((1R,3R)-3-(8-(1-isopropyl-1H-indazol-5-yl)-3-methyl-7-(4-(methylcarbamoyl)phenyl)-2-oxo-3,6-dihydroimidazo[4,5-d]pyrrolo[2,3-b]pyridin-1(2H)-yl)cyclopentyl)carbamate]: the IC50 in experiment [1] is at most 10 nM; in experiment [2] it was over 7500 nM; in experiment [3] it was 300 to 800 nM.

As for `[2H]C([2H])([2H])n1ncc2cc(-c3c(-c4cn(C)nc4OC)[nH]c4ncc5c(c34)n(C3CCOCC3)c(=O)n5C)ccc21` [Comparative Example B, reference compound], the IC50 in experiment [1] was at most 10 nM; in experiment [2], 5000 to 7500 nM.

Take `COC(=O)N[C@@H]1CC[C@@H](n2c(=O)n(C)c3cnc4[nH]c(-c5ccc(C(=O)NCC(F)(F)F)c(F)c5)c(-c5ccc6c(cnn6C(C)C)c5)c4c32)C1` [Example 11, Methyl ((1R,3R)-3-(7-(3-fluoro-4-((2,2,2-trifluoroethyl)carbamoyl)phenyl)-8-(1-isopropyl-1H-indazol-5-yl)-3-methyl-2-oxo-3,6-dihydroimidazo[4,5-d]pyrrolo[2,3-b]pyridin-1(2H)-yl)cyclopentyl)carbamate]: the IC50 is at most 10 nM in experiment [1], over 7500 nM in experiment [2] and at most 300 nM in experiment [3].

Take `COc1nn(C)cc1-c1[nH]c2ncc3c(c2c1-c1ccc2c(cnn2C)c1)n([C@H]1CC[C@@H](CC#N)CC1)c(=O)n3C` [E, reference compound]: the IC50 was at most 10 nM in experiment [1] and over 7500 nM in experiment [2].

As to `COc1nn(C)cc1-c1[nH]c2ncc3c(c2c1-c1ccc2c(cnn2C)c1)n(C1CCOCC1)c(=O)n3C` [Comparative Example A, reference compound], the IC50 is at most 10 nM in experiment [1] and 5000 to 7500 nM in experiment [2].
